Reference: US20250170102A1, “PHARMACEUTICAL COMPOSITION FOR INHIBITING FIBROSIS IN ORGANS” (NAGASAKI UNIVERSITY, priority 2022, published 2025)

Assays:
[1] = test system: human hepatic stellate cells (HSCs); assay: Ex vivo hydrostatic pressure loading test in human HSCs; type: cell-based; settings: 10 nM losartan, 50 mmHg hydrostatic pressure 24 hours
Experimental: Primary human HSCs were purchased from ScienCell Research Laboratories. Cells were expanded by using stellate cell medium (ScienCell Research Laboratories) in a humidified incubator under 5% CO2 and 95% air at 37° C. The third passaged cells were used for the following experiments. A pneumatic pressurizing system (Strex. Inc) was used to induce hydrostatic pressure. Briefly, HSCs were seeded in 60-mm diameter culture dishes (5×10^4 cells/dish) and 4-well culture chamber slides (2×10^4 cells/well). Cells were incubated for 3 days to form about 70% confluent, and then half of the culture dishes and slides were randomly selected to be loaded by 50 mmHg hydrostatic pressure for 24 hours, with or without the addition of 10 nM losartan in medium. The inventors used 50 mmHg for experiments based on their preliminary experiments and a previous report (Yoshino et al., Commun Biol 3:152, 2020, Chen et al., Int J Biol Sci 15:2509-2521, 2019). As controls, non-hydrostatic pressure-loaded groups were provided for each of Losartan addition group and non-Losartan addition group. RT-qPCR was performed to evaluate the expression of RHOA, ROCK1, ROCK2, ACTA2, TGFB1, and COL1A1. Briefly, total RNA was isolated from HSCs using Quick-RNA MicoroPrep Kit, and 1.25 μg of RNA was reverse-transcribed using SuperScript VILO cDNA Synthesis Kit (Thermo Fisher Scientific). Quantitative PCR was carried out with SYBR Green real-time PCR Master Mix (Toyobo). The reactions were performed on a CFX96 real-time PCR System (BIO-RAD). The primer sequences are shown below. GAPDH was used for normalization. HSCs were fixed in 4% paraformaldehyde before blocked by 10% bovine serum albumin. After overnight incubation with the primary antibodies, cells were incubated with secondary antibodies for 1 hour at room temperature, and then mounted with medium containing DAPI. F-actin fibers were stained with TRITC-conjugated phalloidin in mounting medium. Immunofluorescences of stained cells were detected using a fluorescence microscope (FV10i, Olympus). For each staining, 10 images were taken from randomly selected fields at 60× magnification, and the mean fluorescence intensity was measured by ImageJ software. Statistical analysis was performed in the same manner as in Example 1.

[2] = test system: UUO-induced renal fibrosis model mice; assay: Unilateral ureteral obstruction (UUO)-induced renal fibrosis model mice with losartan treatment; type: in vivo, C57BL/6 mice; settings: for body weight: prior to UUO surgery and 1 and 2 weeks post-surgery, among all groups; for level of BUN in serum / level of CRE in serum / swelling of the left kidneys (hydronephrosis) / fibrosis area of kidney (Masson's trichrome staining): 2 weeks after UUO surgery; for level of BUN in serum / level of CRE in serum: compared to control group; for swelling of the left kidneys (hydronephrosis): versus control group; for fibrosis area of kidney (Masson's trichrome staining): versus left kidney of control group (UUO)
Description: C57BL/6 mice (8-week-old, CLEA) were used. The abdomen of mouse was opened under general anesthesia and the left ureter was ligated. The right ureter was not ligated and the right kidney served as a control. The surgical wound was then closed with a single-layer suture of the peritoneum, muscular layer and skin followed by closure of the surgical wound. UUO-induced renal fibrosis model is known to manifest the symptoms of hydronephrosis in the ligated kidney and then develop interstitial fibrosis caused by interstitial deposition of type IV collagen as well as apoptosis of tubular cells at day 3 post-UUO surgery. Post-UUO surgery mice were divided into three groups: low-dose losartan group (1 mg/kg, n=3), high-dose losartan group (3 mg/kg, n=3) and no losartan administration group (n=3). Low-dose losartan group was given losartan (FUJIFILM Wako Pure Chemical Corporation) in their drinking water at a final concentration of 4.6 mg/L, which providing an estimated daily dose of 1 mg/kg. High-dose losartan group was given losartan in their drinking water at a final concentration of 13.8 mg/L, which providing an estimated daily dose of 3 mg/kg. No losartan administration group was given drinking water without addition of losartan. Body weight was measured prior to UUO surgery and 1 and 2 weeks post-surgery. Mice were euthanized 2 weeks post-surgery. Prior to sacrifice, whole blood was collected from IVC and serum was separated. The levels of serum BUN and CRE were measured. The left and right kidneys were then harvested and photographed. Kidneys were fixed in 4% paraformaldehyde and embedded into paraffin block. Tissue sections of about 5 µm thickness were used for histological analysis. (3) Masson's trichrome staining and Hematoxylin and Eosin staining Tissue sections were deparaffinized and rehydrated. Masson's trichrome staining was performed using Trichrome Stain (Masson) Kit (Sigma-Aldrich) according to the manufacturer's instructions. Hematoxylin and Eosin (HE) staining was performed by a conventional method. Tissue specimens were observed under with an optical microscope (IX71, Olympus). Statistical analysis was performed in the same manner as in Example 1.

[3] = test system: partial inferior vena cava ligation model mice (liver fibrosis); assay: Partial inferior vena cava ligation model mice with low-dose losartan treatment; type: in vivo, C57BL/6 mice
Description: C57BL/6 mice (10-week-old, CLEA) were used. All animal experiments were approved by the Institutional Animal Care and Use Committee of Nagasaki University, and carried out in accordance with the institutional guidelines.
IVC was separated and a small tube (0.9 mm diameter) was placed along with the anterior surface of IVC ((B) in FIG. 1). The tube was tightly ligated together with the IVC ((C) in FIG. 1), and immediately after that, the tube was gently removed ((D) in FIG. 1). The abdomen was then closed with a suture of the peritoneal muscle/fascia followed by closure of the skin. Removing the 0.9 mm diameter tube from IVC ligation was expected to reduce the cross-sectional area of IVC by about 80% based on Simonetto et al.
After all procedures, mice were divided into Losartan group (n=6), IVCL group (n=6) and Sham group (n=6). Losartan group was given losartan (FUJIFILM Wako
Pure Chemical Corporation) in their drinking water at a final concentration of 2.3 mg/L, which providing an estimated daily dose of 0.5 mg/kg. IVCL group was given drinking water without addition of any drug. Treatment was continued until the cessation of the experiments. Sham group received a sham operation including all above steps with the exception of partial IVC ligation, and was given drinking water without addition of any drug.
Mice were euthanized 8 weeks postoperatively. Prior to sacrifice, the body weight was measured, and whole blood was collected from IVC and serum was separated. The levels of serum ALT and AST were measured. The suprahepatic IVC was then transected and the liver was perfused with PBS through the portal vein to remove circulating blood and fibrinogen. The spleen and liver were harvested and weighed, and the spleen/body and liver/body weight ratios were calculated. Liver tissues were fixed in 4% paraformaldehyde and embedded into paraffin block. Tissue sections of about 5 um thickness were used for histological analysis.
Liver tissue sections were deparaffinized and rehydrated. Masson's trichrome staining was performed using Trichrome Stain (Masson) Kit (Sigma-Aldrich) according to the manufacturer's instructions, and then observed under an optical microscope (IX71, Olympus).
Immunohistochemistry analysis on the liver tissues was performed to understand the relevant mechanism. Briefly, liver tissue sections were blocked with 10% bovine serum albumin, and then incubated with primary antibodies (Table 1) overnight at 4°° C., followed by incubation with secondary antibodies (Table 2) for 1 hour at room temperature in the dark. Sections were then mounted with medium containing DAPI. Apoptotic cells were detected by the usage of TUNEL staining kit (Abcam, #ab66108) according to the manufacturer's instructions. Briefly, sections were incubated with DNA labeling solution at 37° C. for 60 min, followed by the addition of PI/RNase A solution for 30 min. Immunofluorescences of stained liver tissues were detected using a fluorescence microscope (FV10i, Olympus). For each staining, at least 10 images were taken from randomly selected fields at 60× magnification, and the mean fluorescence intensity was measured by ImageJ software.
All the results were presented as mean±SD. Statistical significance was determined by one-way analysis of variance (ANOVA) followed by Turkey's test. P value <0.05 was accepted as significant. GraphPad Prism 8 software was used for statistical analysis.

[4] = test system: acute lung injury caused by mechanical stimulation; settings: reported in non-patent literature 3; cited from earlier work
[5] = test system: liver fibrosis caused by non-alcoholic steatohepatitis; settings: rats; reported in non-patent literature 4; cited from earlier work
[6] = compared to pressure-loaded group without losartan
[7] = losartan 0.5 mg/kg/day in drinking water, 8 weeks after partial IVC ligation, among Sham, IVCL and Losartan groups
[8] = losartan 0.5 mg/kg/day in drinking water, 8 weeks after partial IVC ligation, compared with Sham group
[9] = losartan 0.5 mg/kg/day, 8 weeks, compared to IVCL group
[10] = losartan 0.5 mg/kg/day, 8 weeks, versus upregulation in IVCL group

CCCCc1nc(Cl)c(CO)n1Cc1ccc(-c2ccccc2-c2nn[nH]n2)cc1 [losartan]
expression of ROCK2 (immunohistochemistry) [1]: no significant change
expression of ROCK2 gene (RT-qPCR) [1]: no significant change
formation of actin stress fibers (phalloidin staining for F-actin) [1]: effectively reduced
expression of ACTA2 gene (RT-qPCR) [1, 6]: significantly decreased
expression of AT1R gene (RT-qPCR) [1, 6]: significantly decreased
expression of AT1R in the cytoplasm (immunohistochemistry) [1, 6]: significantly decreased
expression of AT1R in the nucleus (immunohistochemistry) [1, 6]: significantly decreased
expression of COL1A1 gene (RT-qPCR) [1, 6]: significantly decreased
expression of ROCK1 (immunohistochemistry) [1, 6]: significantly decreased
expression of ROCK1 gene (RT-qPCR) [1, 6]: significantly decreased
expression of RhoA (immunohistochemistry) [1, 6]: significantly decreased
expression of RhoA gene (RT-qPCR) [1, 6]: significantly decreased
expression of TGF-β1 (immunohistochemistry) [1, 6]: significantly decreased
expression of TGFB1 gene (RT-qPCR) [1, 6]: significantly decreased
expression of p-MLC2 (immunohistochemistry) [1, 6]: significantly decreased
expression of type 1 collagen (immunohistochemistry) [1, 6]: significantly decreased
expression of α-SMA (immunohistochemistry) [1, 6]: significantly decreased
body weight ([2]; high-dose losartan 3 mg/kg/day in drinking water): No significant change
level of BUN in serum ([2]; high-dose losartan 3 mg/kg/day): significantly decreased
level of CRE in serum ([2]; high-dose losartan 3 mg/kg/day): significantly decreased
swelling of the left kidneys (hydronephrosis) ([2]; high-dose losartan 3 mg/kg/day): significantly inhibited
fibrosis area of kidney (Masson's trichrome staining) ([2]; high-dose losartan 3 mg/kg/day): significant decreasing
body weight ([2]; low-dose losartan 1 mg/kg/day in drinking water): No significant change
level of BUN in serum ([2]; low-dose losartan 1 mg/kg/day): significantly decreased
level of CRE in serum ([2]; low-dose losartan 1 mg/kg/day): significantly decreased
swelling of the left kidneys (hydronephrosis) ([2]; low-dose losartan 1 mg/kg/day): significantly inhibited
fibrosis area of kidney (Masson's trichrome staining) ([2]; low-dose losartan 1 mg/kg/day): significant decreasing
level of ALT in serum [3, 7]: not significantly different
level of AST in serum [3, 7]: not significantly different
liver/body weight ratio [3, 8]: kept at comparable levels
spleen/body weight ratio [3, 8]: kept at comparable levels
expression of ROCK2 in liver tissue (immunostaining) ([3]; losartan 0.5 mg/kg/day, 8 weeks, all groups): not substantially changed
changes in the lobular architecture of liver [3, 9]: effectively alleviated
fibrotic area of liver tissue (Masson's trichrome staining) [3, 9]: significantly decreased
percentage of apoptotic cells in liver tissue (TUNEL staining) ([3]; losartan 0.5 mg/kg/day, 8 weeks, compared to Sham group): not significantly changed
expression of α-SMA in liver tissue (immunostaining signal intensity) ([3]; losartan 0.5 mg/kg/day, 8 weeks, in contrast to IVCL group): significantly reduced
expression of ROCK1 in liver tissue (immunostaining) [3, 10]: significantly reduced
expression of RhoA in liver tissue (immunostaining) [3, 10]: significantly reduced
expression of p-MLC2 in liver tissue (immunostaining) [3, 10]: effectively attenuated
acute lung injury caused by mechanical stimulation [4]: effectively relieves
liver fibrosis caused by non-alcoholic steatohepatitis [5]: mitigates
